Experimental findings from US12637468B2, “Substituted [1,2,4]triazolo[4,3-b]pyridazines as GABAA receptor modulators” (SHANGHAI SIMR BIOTECHNOLOGY CO., LTD., priority 2019, dated 2026) are described below.

For the assay, the target named is T1, α5-GABAA receptor (Homo sapiens, UniProt P18507+P31644).
T1 construct: expressed in transfected cells; host or cells: HEK293, monoclonal stably transfected line
As to the kind of experiment: Cell-level screening: whole cell patch clamp, inverse agonist efficacy on α5-GABAA receptor expressed in HEK293. The class given is cell-based. The conditions noted are these: drug 100 nM, GABA 0.05 μM, HEK293 expressing α5, β3 and γ2 subunits, clamped at −60 mV; read-out: Compound inverse agonist efficacy %. Here is the method: The inventors used electrophysiological methods to determine the inverse agonist efficacy of the drugs to be tested on the α5-GABAA receptor. The detailed methods are as follows:
Different subunits of GABAA receptors were expressed in human […] cell line 293 (HEK293) cell line. The cells were cultured in a culture medium and used as a cell model for screening pain inhibiting drugs. The α, β and γ subunits are necessary to form complete functional GABAA receptors. In this embodiment, the inventors had established the following cell model: α5 subunit (see GenBank Accession No. NM_000810.3 for protein sequences), β3 subunit (see GenBank Accession No. NM_000814.5 for protein sequences) and γ2 subunit (see GenBank Accession No. NM_000816.3 for protein sequences) were expressed in HEK293 cell line at the same time, followed by screening the monoclonal cell line. This cell line contained α5-GABAA receptor and had complete GABAA receptor function.
The monoclonal stably transfected HEK-293 cells expressing α5-GABAA receptor were cultured in 10 cm culture dishes and passaged when the cells grew to 80%-90%. During passaging, the culture medium was aspirated first, then 3 mL of DPBS phosphate buffer salt (Gibco™) was added to the culture dishes, and the culture dishes were shaken slightly, and DPBS was aspirated. 1 mL of trypsin (TrypLE Express, Gibco™) was added thereto, and the cells were digested at 37° C. for 1-2 minutes. Then 3 mL of complete medium (DMEM+10% FBS (Gibco™)) was added and the cells at the bottom of the culture dishes were dispersed. The cell suspension were transferred to a 15 mL centrifugal tube (Corning) and then centrifuged at 200 g for 3 minutes. The supernatant was discarded, 4 mL of complete medium was added, and the cells were gently blown and resuspended for use. If cell passaging was performed, the cell suspension was diluted at a ratio of 1:5 or 1:10. If cells for electrophysiology use were prepared, the cell suspension was diluted in a ratio of 1:12, then added into a 24-well dish (Corning™) in which glass slides were placed and pretreated with Poly-D-Lysine, and the cells were tested after being attached to the walls. The culture time of cells for electrophysiology use was no more than 48 hours.
Drug concentration setting: the final drug concentration used in drug screening was 100 nM, and the GABA concentration range was 0.05 μM. The final drug concentrations used in the dose-inversal agonistic efficiency (%) test were 0.3 nM, 3 nM, 10 nM, 30 nM, 100 nM and 300 nM. The whole cell patch clamp technique was used in electrophysiological experiments, which could refer to the literature (I. Lecker, Y. Yin, D. S. Wang and B. A. Orser, (2013) Potentiation of GABAA receptor activity by volatile anaesthetics is reduced by α5-GABAA receptor-preferring inverse agonists, British Journal of Anaesthesia 110 (S1): i73-i81). The components of extracellular solution (ECS) for electrophysiology use were as follows: 150 mM NaCl, 5 mM KCl, 2.5 mM CaCl2), 1 mM MgCl2, 10 mM HEPES and 10 mM glucose (pH 7.4); electrode internal solutions for electrophysiology use were as follows: 140 mM CsCl, 11 mM EGTA, 10 mM HEPES, 2 mM CaCl2), 1 mM MgCl2, 4 mM MgATP, 2 mM TEA (pH 7.3). The signal acquisition used an EPC-10 amplifier and the PatchMaster software (HEKA). The recording electrode was drawn using borosilicate glass, and the electrode resistance was 4 to 6 MΩ. The ALA-VC3-8PP™ system was used for extracellular administration. Separate cells that grew independently was selected for recording. During recording, the cell membrane potential was clamped at −60 mV. During experiment, an extracellular solution was applied to the cells for about 20 seconds. When the baseline reached to a stable state, the extracellular solution was switched to GABA. Then the current induced by GABA could be detected. […]
A general note: Patch clamp records ionic current or voltage across a cell membrane.

T1 sequence (P31644 32-462): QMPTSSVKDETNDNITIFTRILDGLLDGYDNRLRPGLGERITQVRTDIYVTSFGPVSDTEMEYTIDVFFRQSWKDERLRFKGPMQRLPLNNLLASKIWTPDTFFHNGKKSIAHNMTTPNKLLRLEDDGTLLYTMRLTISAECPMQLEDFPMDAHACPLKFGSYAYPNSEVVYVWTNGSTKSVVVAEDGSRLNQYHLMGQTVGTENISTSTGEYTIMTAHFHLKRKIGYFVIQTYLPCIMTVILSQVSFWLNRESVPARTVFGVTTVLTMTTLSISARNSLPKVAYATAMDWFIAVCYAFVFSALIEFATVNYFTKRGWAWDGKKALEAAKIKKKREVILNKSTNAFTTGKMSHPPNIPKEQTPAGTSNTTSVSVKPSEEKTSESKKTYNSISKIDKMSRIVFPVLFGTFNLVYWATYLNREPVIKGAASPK
T1 sequence (P28472 26-473 partner): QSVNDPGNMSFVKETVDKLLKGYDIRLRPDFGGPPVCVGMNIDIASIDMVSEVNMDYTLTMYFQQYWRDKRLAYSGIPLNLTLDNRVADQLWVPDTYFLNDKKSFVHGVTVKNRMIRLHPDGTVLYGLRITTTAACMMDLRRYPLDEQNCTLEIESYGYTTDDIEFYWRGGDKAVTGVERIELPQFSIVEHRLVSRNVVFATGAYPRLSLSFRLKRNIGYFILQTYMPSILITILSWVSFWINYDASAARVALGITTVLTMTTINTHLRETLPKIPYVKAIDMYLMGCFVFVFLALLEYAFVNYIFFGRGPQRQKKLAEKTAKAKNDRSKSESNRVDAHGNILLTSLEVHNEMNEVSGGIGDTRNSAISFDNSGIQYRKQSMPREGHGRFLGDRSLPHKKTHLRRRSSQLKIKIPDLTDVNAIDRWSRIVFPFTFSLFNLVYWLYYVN
T1 sequence (P18507 40-467 isoform P18507-1 limits assumed): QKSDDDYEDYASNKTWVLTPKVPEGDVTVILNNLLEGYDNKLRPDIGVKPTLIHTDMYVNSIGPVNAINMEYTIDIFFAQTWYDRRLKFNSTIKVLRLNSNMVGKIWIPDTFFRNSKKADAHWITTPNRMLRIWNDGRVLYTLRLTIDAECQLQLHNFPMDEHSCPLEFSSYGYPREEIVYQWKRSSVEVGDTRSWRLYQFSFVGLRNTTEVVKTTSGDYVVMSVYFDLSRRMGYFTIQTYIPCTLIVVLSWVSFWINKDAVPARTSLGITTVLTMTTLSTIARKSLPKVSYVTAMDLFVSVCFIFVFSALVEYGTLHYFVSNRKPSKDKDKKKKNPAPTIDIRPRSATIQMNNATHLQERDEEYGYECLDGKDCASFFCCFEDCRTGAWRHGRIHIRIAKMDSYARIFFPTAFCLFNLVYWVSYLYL

Regarding `COc1cc2nnc(-c3cc(C)on3)n2nc1OCc1ccc2cnccc2n1` [Embodiment 140], the inhibition at 0.1 µM came out at 49.3%.

Turning to `COc1cc2nnc(-c3cc(C)on3)n2nc1OCc1ccc2c(n1)CCN(C)C2=O` [Embodiment 142], the inhibition at 0.1 µM came to 50.2%. The figure for `COc1cc2nnc(-c3cc(C)on3)n2nc1OCc1ccc2c(n1)CCN(C(=O)CC#N)C2` [Embodiment 143] is 49.6%.

`COc1cc2nnc(-c3cc(C)on3)n2nc1OCc1ccc2c(=O)n(C3COC3)ccc2n1` [Embodiment 144]: the inhibition at 0.1 µM is 42%. On to `CCOc1nccc2nc(COc3nn4c(-c5cc(C)on5)nnc4cc3OC)ccc12` [Embodiment 145], for which the inhibition at 0.1 µM was determined as 51.3%.

Regarding `COCCOc1nccc2nc(COc3nn4c(-c5cc(C)on5)nnc4cc3OC)ccc12` [Embodiment 146], the inhibition at 0.1 µM is 33.4%. The same measure for `COCCn1ccc2nc(COc3nn4c(-c5cc(C)on5)nnc4cc3OC)ccc2c1=O` [Embodiment 147]: 39.8%; for `CCn1ccc2nc(COc3nn4c(-c5cc(C)on5)nnc4cc3OC)ccc2c1=O` [Embodiment 148]: 69.6%; for `COc1cc2nnc(-c3cc(C)on3)n2nc1OCc1ccc2c(n1)N(C)CCO2` [Embodiment 149]: 71.7%. For `COCCCOc1nnc(COc2nn3c(-c4cc(C)on4)nnc3cc2OC)cc1C` [Embodiment 155], the inhibition at 0.1 µM was determined as 50.1%. The same measure for `COc1cc2nnc(-c3cc(C)on3)n2nc1OCc1cnc(OC2COC2)cn1` [Embodiment 157]: 46.8%; for `COCCNc1ccc(COc2nn3c(-c4cc(C)on4)nnc3cc2OC)nn1` [Embodiment 159]: 50.4%. With `COCC(C)Oc1ccc(COc2nn3c(-c4cc(C)on4)nnc3cc2OC)nn1` (stereo not shown) [Embodiment 161], the inhibition at 0.1 µM was determined as 53.1%.

As for `COc1cc2nnc(-c3cc(C)on3)n2nc1OCc1ccc(OCC2CCCO2)nn1` (stereo not shown) [Embodiment 165], the inhibition at 0.1 µM is 49.8%. The figure for `COc1cc2nnc(-c3cc(C)on3)n2nc1OCc1ccc(OCC2CCOCC2)nn1` [Embodiment 171] is 53.1%. The same measure for `COc1cc2nnc(-c3cc(C)on3)n2nc1OCc1cc(OC2COC2)ccn1` [Embodiment 172]: 47.6%; for `COc1cc2nnc(-c3cc(C)on3)n2nc1OCc1ccc(OC2COC2)cn1` [Embodiment 175]: 36%; for `CCc1cn2nc(COc3nn4c(-c5cc(C)on5)nnc4cc3OC)ccc2n1` [Embodiment 176]: 50.1%. The same measure for `COc1cc2nnc(-c3cc(C)on3)n2nc1OCc1cnc(OC2CCOCC2)cn1` [Embodiment 177]: 56.5%; for `COc1cc2nnc(-c3cc(C)on3)n2nc1OCc1cnc(OCC2CCCO2)cn1` (stereo not shown) [Embodiment 178]: 36.7%; for `COc1cc2nnc(-c3cc(C)on3)n2nc1OCc1ccc2c(n1)CCN(C1CC(F)(F)C1)C2` [Embodiment 184]: 33.9%. With `COc1cc2nnc(-c3cc(C)on3)n2nc1OCc1ccc2c(n1)CCN(Cc1nnc(C)o1)C2` [Embodiment 188], the inhibition at 0.1 µM turned out to be 52.4%. On to `COCC(C)(C)N1CCc2nc(COc3nn4c(-c5cc(C)on5)nnc4cc3OC)ccc2C1` [Embodiment 190], for which the inhibition at 0.1 µM was found to be 38.3%. As for `COc1cc2nnc(-c3cc(C)on3)n2nc1OCc1ccc2c(n1)CCN(c1cc(C)on1)C2` [Embodiment 191], the inhibition at 0.1 µM is 44%. `COc1cc2nnc(-c3cc(C)on3)n2nc1OCc1ccc2c(n1)CCN(c1nnc(C)o1)C2` [Embodiment 192]: the inhibition at 0.1 µM amounted to 40.8%. Consider `COc1cc2nnc(-c3cc(C)on3)n2nc1OCc1ccc2c(n1)CCN(CC13CC(C#N)(C1)C3)C2` [Embodiment 194], for which the inhibition at 0.1 µM worked out at 41.5%. The figure for `COc1cc2nnc(-c3cc(C)on3)n2nc1OCc1ccc2c(n1)CCN(C1CC(C#N)C1)C2` (stereo not shown) [Embodiment 195] is 45.8%; for `COc1cc2nnc(-c3cc(C)on3)n2nc1OCc1ccc2c(n1)CCN(CC(F)(F)CO)C2` [Embodiment 196] it is 50.8%; for `COc1cc2nnc(-c3cc(C)on3)n2nc1OCc1ccc2c(n1)CCN(C1CN(C(C)=O)C1)C2` [Embodiment 199, 1-(3-(2-(((7-Methoxy-3-(5-methylisoxazol-3-yl)-[1,2,4]triazolo[4,3-b]pyridazin-6-yl)oxy)methyl)-7,8-dihydro-1,6-naphthyridin-6(5H)-yl)azetidin-1-yl)ethan-1-one] it is 56.8%.

Consider `COc1cc2nnc(-c3cc(C)on3)n2nc1OCc1ccc2c(n1)CCN(C(=O)NC1CC(F)(F)C1)C2` [Embodiment 201, N-(3,3-Difluorocyclobutyl)-2-(((7-methoxy-3-(5-methylisoxazol-3-yl)-[1,2,4]triazolo[4,3-b]pyridazin-6-yl)oxy)methyl)-7,8-dihydro-1,6-naphthyridine-6(5H)-carboxamide], for which the inhibition at 0.1 µM worked out at 48.3%.

As to `COc1cc2nnc(-c3cc(C)on3)n2nc1OCc1ccc2c(n1)CCN(C(=O)N(C)CC(F)(F)F)C2` [Embodiment 204], the inhibition at 0.1 µM stood at 49.7%. The figure for `COc1cc2nnc(-c3cc(C)on3)n2nc1OCc1ccc2c(n1)CCN(S(=O)(=O)N(C)C)C2` [Embodiment 205, 2-(((7-Methoxy-3-(5-methylisoxazol-3-yl)-[1,2,4]triazolo[4,3-b]pyridazin-6-yl)oxy)methyl)-N,N-dimethyl-7,8-dihydro-1,6-naphthyridine-6(5H)-sulfonamide] is 52.5%; for `COc1cc2nnc(-c3cc(C)on3)n2nc1OCc1ccc2c(n1)CCN(C(=O)NCC(F)F)C2` [Embodiment 207] it is 49.3%; for `COc1cc2nnc(-c3cc(C)on3)n2nc1OCc1ccc2c(n1)CCN(S(C)(=O)=O)C2` [Embodiment 209] it is 48.8%. Consider `COc1cc2nnc(-c3cc(C)on3)n2nc1OCc1ccc2nc(C3CCOCC3)cn2n1` [Embodiment 212], for which the inhibition at 0.1 µM worked out at 72.6%. With `COc1cc2nnc(-c3cc(C)on3)n2nc1OCc1ccc2nnc(C3CCOCC3)n2n1` [Embodiment 215], the inhibition at 0.1 µM worked out at 36.8%. For the compound `COc1cc2nnc(-c3cc(C)on3)n2nc1OCc1ccc2cnn(C)c2n1` [Embodiment 220], the inhibition at 0.1 µM came out at 51.8%.

For the compound `COc1cc2nnc(-c3cc(C)on3)n2nc1OCc1ccc2c(cnn2Cc2ccccc2)n1` [Embodiment 222], the inhibition at 0.1 µM was determined as 44.3%. For the compound `COc1cc2nnc(-c3cc(C)on3)n2nc1OCc1ccc2c(cnn2Cc2cc(C)on2)n1` [Embodiment 224], the inhibition at 0.1 µM was 46.7%.

In the case of `COc1cc2nnc(-c3cc(C)on3)n2nc1OCc1ccc2nn(Cc3cc(C)on3)cc2n1` [Embodiment 225], the inhibition at 0.1 µM worked out at 74.4%. With `COc1cc2nnc(-c3cc(C)on3)n2nc1OCc1ccc2nn(C3COC3)cc2n1` [Embodiment 226, 3-(7-Methoxy-6-((2-(oxetan-3-yl)-2H-pyrazolo[4,3-b]pyridin-5-yl)methoxy)-[1,2,4]triazolo[4,3-b]pyridazin-3-yl)-5-methylisoxazole], the inhibition at 0.1 µM worked out at 45.9%. With `COc1cc2nnc(-c3cc(C)on3)n2nc1OCc1ccc2c(cnn2C2COC2)n1` [Embodiment 227], the inhibition at 0.1 µM was 61.5%.

For `COc1cc2nnc(-c3cc(C)on3)n2nc1OCc1ccc2c(cnn2CCC#N)n1` [Embodiment 228], the inhibition at 0.1 µM was found to be 44.7%.
